Results: patent US20060229284A1, “Enhanced occlusive effect photodynamic therapy” (priority 2004, published 2006)

Key:
skin = conditions: systemic administration, clinical use; cited from earlier work
[1] = test system: neovasculature of the eye (advanced AMD); test: Clinical trial of PDT with Talaporfin Sodium and 664 nm laser light in 9 human subjects with advanced AMD; format: in vivo
Excerpt: A clinical trial of 9 human subjects with advanced AMD was arranged. The 9 subjects were each treated with PDT using Talaporfin Sodium, and a laser light at 664 nm wavelength as the excitation light source. The Table as provided in FIG. 1 describes the results of and details of the PDT procedures performed on the 9 subjects.

[2] = test system: choroidal neovascularization (CNV); conditions: cited from earlier work
[3] = test system: choroidal neovascularization (CNV); conditions: after re-treatment; cited from earlier work
classic CNV = conditions: 3 months after initial PDT treatment; cited from earlier work
[4] = test system: subfoveal choroidal neovascularization (CNV); conditions: cases followed for 3 months after a single PDT treatment; cited from earlier work

Compound: CCOC(=O)C1=Cc2c3nc(cc4nc(cc5[n-]c(cc6[n-]c2c(C)c6CC)c(C)c5CC)C(C)=C4CC)[C@@H](C)[C@]13CC.[Cl-].[Cl-].[Sn] (racemic) [Purlytin]
- duration of skin photosensitivity (skin): several weeks

Compound: Oc1cccc(-c2c3nc(c(-c4cccc(O)c4)c4ccc([nH]4)c(-c4cccc(O)c4)c4nc(c(-c5cccc(O)c5)c5ccc2[nH]5)CC4)C=C3)c1 [Foscan]
- duration of skin photosensitivity (skin): several weeks

Compound: C=Cc1c(C)c2cc3nc(c(CC(=O)N[C@@H](CC(=O)O)C(=O)O)c4[nH]c(cc5nc(cc1[nH]2)C(C)=C5CC)c(C)c4C(=O)O)[C@@H](CCC(=O)O)[C@@H]3C [Talaporfin Sodium, mono-L-aspartyl-chlorin e6]
- extended period of enhanced neovasculature occlusive effect ([1]; most patients of 9 subjects, laser light 664 nm): ≥ 15 weeks
- retina and leakage after treatment ([1]; subjects 1 and 3, who had leakage causing serious elevation of the retina): the retina appeared more flat and leakage had apparently ceased
- re-opening of treated vessels during subsequent observations ([1]; subjects studied, FIG. 1): no indication of re-opening of vessels

Compound: sodium porfimer [Photophrine]
- duration of skin photosensitivity (skin): up to 6 weeks

Compound: verteporfin
- subject eyes that maintained CNV closure ([2]; after 1 week): 83%
- eyes showing closure ([2]; after 5 weeks): 9%
- eyes showing leakage had recommenced ([2]; after 5 weeks, excluding one eye removed from test data): 91%
- leakage activity compared to baseline leakage [3]: appeared to be reduced
- eyes scheduled for retreatment (classic CNV): 90.8%
- eyes with classic CNV present that displayed leakage from classic CNV again (classic CNV): 92.8%
- cases with progression of classic CNV beyond the area of CNV identified before treatment [4]: 51%
